Tests used:
blood brain barrier [1] = test: Evans Blue dye extravasation across the blood brain barrier; type: in vivo, mice; conditions: single i.v. injection 100 μl 0.01 nM, 1 h before dye
Experimental: The objective of this experiment was to determine if the blood brain barrier could be modulated by activation of adenosine receptors. NECA is a non-selective adenosine receptor agonist, with similar affinities for A1, A2A and A3 adenosine receptors and a low affinity for the A2b adenosine receptor. In order to determine if activation of adenosine receptors would induce extravasation of Evans Blue dye across the blood brain barrier (BBB), mice were treated with: NECA, a non-selective adenosine receptor agonist (n=5, 100 μl 0.01 nM); SCH58261, an A2A adenosine receptor specific antagonist (n=5, 1 mg/kg); pertussis toxin, an agent known to induce BBB leakiness and as such used as a positive control (n=7, 200 μl); and, PBS as a vehicle control (n=5, 100 μl). CD73^−/− mice, which lack the ability to produce extracellular adenosine, were also treated with NECA (n=4, 100 μl 0.01 nM). Treatments were administered as a single i.v. injection one hour prior to i.v. injection of 200 μl 1% Evans Blue dye ([…] total dye injected). Four hours after administration of Evans Blue, mice were anesthetized with a ketamine/xylazine mix and perfused via the left ventricle with ice cold PBS. […] Following extraction, the tissue/solvent mixture was centrifuged at 500×g for 30 minutes and 100 μl of supernatant was read on a BioTex spectrophotometer at 620 nm. Data is expressed as μg Evans Blue/ml DMF.

hCMEC/D3 cells [2] = test: Jurkat cell migration across hCMEC/D3-seeded Transwell (in vitro BBB); type: cell-based, human; conditions: hCMEC/D3 on Transwell, migrated cells counted after 24 hours
Text: The blood brain barrier (“BBB”) is comprised of endothelial cells. During late stages of EAE, lymphocytes are known to cross the BBB. In order to determine if adenosine receptor stimulation of brain endothelial cells could promote lymphocyte migration through the BBB, an in vitro BBB was established. The human brain endothelial cell line hCMEC/D3 (Weksler et al., “Blood-brain Barrier-specific Properties of a Human Adult Brain Endothelial Cell Line,” […] (2005); Poller et al., “The Human Brain Endothelial Cell Line hCMEC/D3 as a Human Blood-brain Barrier Model for Drug Transport Studies,” J. Neurochem. 107(5):1358-1368 (2008), which are hereby incorporated by reference in their entirety) was obtained, which has been previously described as having BBB properties.
hCMEC/D3 cells were seeded onto Transwell and allowed to grow to confluencey. 2×10^6 Jurkat cells were added to the upper chamber with or without NECA (general adenosine receptor [AR] agonist), CCPA (A1 AR agonist), CGS 21860 (A2A AR agonist), or DMSO vehicle. After 24 hours, migrated cells in the lower chamber were counted. Values are relative to the number of cells that migrate through non-HCMECD3 seeded transwells.

Z310 cells = test: Jurkat cell migration across Z310-seeded Transwell (choroid plexus); type: cell-based, murine; conditions: Z310 cells on Transwell, migrated cells counted after 24 hours, n=1
Experimental: The choroid plexus (“CP”) controls lymphocyte migration into the CNS. The CP expresses the A1 and A2A adenosine receptors. EAE is prevented in mice when A2A adenosine receptor activity is blocked. EAE is enhanced when the A1 adenosine receptor is missing. It was hypothesized that A2A adenosine receptor activation promotes lymphocyte migration across the CP. Z310 cells are a murine choroid plexus cell line. To test the hypothesis, Transwell membranes were seeded with Z310 cells and allowed to grow to confluencey. 2×10^6 Jurkat cells were added to the upper chamber with or with out NECA (n=1, general AR agonist), CCPA (n=1, AAR agonist), CGS 21860 (n=1, A2AAR agonist), or DMSO vehicle (n=1). After 24 hours, migrated cells in the lower chamber were counted. Values are relative to the number of cells that migrate through non-Z310 seeded transwells and the results are shown in FIG. 12.

hCMEC/D3 cells [3] = test: cAMP levels in human brain endothelial cells (cAMP Screen kit); type: cell-based; conditions: 15 minutes treatment, various concentrations (CCPA: at high levels)
Experimental: Adenosine receptor activation regulates cAMP levels in cells. In order to determine the sensitivity of human brain endothelial cells to adenosine receptor induced cAMP regulation, human brain endothelial cells were cultured with adenosine receptor agonists at various concentrations, followed by cAMP level analysis, as shown in FIG. 13.
HCMECD3 cells were grown to confluencey on 24 well plates. As adenosine receptor (“AR”) stimulation is known to influence cAMP levels, cells were treated with or without various concentrations of NECA (general AR agonist), CCPA (A1 AR agonist), CGS 21860 (A2A AR agonist), DMSO vehicle, or Forksolin (induces cAMP). After 15 minutes, lysis buffer was added and the cells were frozen at −80 C to stop the reaction. Duplicate samples were used for each condition. cAMP levels were assayed using a cAMP Screen kit (Applied Biosystems, Foster City, Calif.).

blood brain barrier [4] = test: Evans Blue dye extravasation across the blood brain barrier in mice immunized for EAE; type: in vivo; conditions: WT EAE mice; 100 μl 0.01 nM on day 1, 3, 5, 7, 9; dye on day 10
Experimental: In order to determine if activation of adenosine receptors would induce extravazation of Evans Blue dye across the blood brain barrier (BBB), mice were first treated on day one with NECA, a non-selective adenosine receptor agonist (n=2, 100 μl 0.01 nM); and, PBS as a vehicle control (n=2, 100 μl). On day 2 mice were then immunized with CFA-MOG35-55 and pertussis to induce EAE. Then NECA or PBS was administered every other day on day 3, day 5, day 7 and day 9. On day 10, mice were injected intravenously with 200 μl 1% Evans Blue dye ([…] total dye injected). Six hours after administration of Evans Blue, mice were anesthetized with a ketamine/xylazine mix and perfused via the left ventricle with ice cold PBS. Brains were harvested and homogenized in n,n-dimethylformamide (DMF) at 5 μl/mg (v:w). Tissue was incubated for 72 hours at room temperature in DMF to extract the dye. Following extraction, the tissue/solvent mixture was centrifuged at 500×g for 30 minutes and 100 μl of supernatant was read on a BioTex spectrophotometer at 620 nm.

## CCNC(=O)[C@H]1O[C@@H](n2cnc3c(N)ncnc32)[C@H](O)[C@@H]1O [NECA, 5′-N-ethylcarboxamidoadenosine]
Blood brain barrier [1]; CD73−/− mice
  Evans Blue dye migration across the BBB vs. PBS control: almost five fold increase
Blood brain barrier [1]; WT mice
  Evans Blue dye migration across the BBB vs. control mice: increase over control mice
hCMEC/D3 cells [2]
  lymphocyte (Jurkat) migration across the in vitro BBB: induced some migration
Z310 cells
  lymphocyte (Jurkat) migration across the CP: induced migration
hCMEC/D3 cells [3]
  cAMP levels: increased cAMP levels
Blood brain barrier [4]
  BBB permeability (Evans Blue dye) over PBS control EAE mice: increase in BBB permeability

Source: patent US20110262442A1, “COMPOSITIONS FOR TREATING CNS DISORDERS” (Adenios, Inc., priority 2009, published 2011)
